# Residues, ends and D or L forms follow the SMILES beside them.
# Columns and labels:
# rabbit red cells = settings: in vivo
compound,measurement,setting,value
NCCCS(=O)(=O)O [3-Amino-1-propanesulfonic acid],Doubling [time] of Yac cells,Yac cells,99.6
"NC(=O)CNCCS(=O)(=O)O [ACES, 2-[(2-Amino-2-oxoethyl)amino]ethane sulfonic acid]",Doubling [time] of Yac cells,Yac cells,1038.4
"O=C(O)CN(CCO)CCO [BICINE, N,N-bis(2-hydroxyethyl)glycine]",Doubling [time] of Yac cells,Yac cells,57.7
"O=S(=O)(O)CCCNC1CCCCC1 [CAPS, 3-(Cyclohexylamino)-1-propanesulfonic acid]",Doubling [time] of Yac cells,Yac cells,45.8
same,Effect on cell doubling time (in words),Yac cells,negligible effects on cell doubling time
"O=S(=O)(O)CCNC1CCCCC1 [CHES, 2-(N-cyclohexylamino)ethane sulfonic acid]",Doubling [time] of Yac cells,Yac cells,51.5
"O=S(=O)(O)CC(O)CN(CCO)CCO (centres unmarked) [DIPSO, 3-[N-N-bis(2-hydroxyethyl)amino]-2-hydroxypropane-sulfonic acid]",Doubling [time] of Yac cells,Yac cells,36.7
same,Effect on cell doubling time (in words),Yac cells,negligible effects on cell doubling time
CCCCCCCCCCCCCCN1C(=CC=Cc2oc3ccccc3[n+]2CCCCCCCCCCCCCC)Oc2ccccc21 [DiOC14 (3)],Cell doubling time / growth of labelled cells,V79 cells,Cell doubling time was unaffected
CCCCCCCCCCCCCCN1C(=CC=CC=Cc2sc3ccccc3[n+]2CCCCCCCCCCCCCC)Sc2ccccc21 [DiSC14 (5)],Effect on clearance rate of red blood cells,rabbit red cells,did not affect the clearance rate of red blood cells
same,Lifetime of labelled red cells in circulation,rabbit red cells,52 days
"O=S(=O)(O)CCCN1CCN(CCO)CC1 [EPPS, N-(2-Hydroxyethyl)piperazine-N-3-propanesulfonic acid]",Doubling [time] of Yac cells,Yac cells,32.2
same,Effect on cell doubling time (in words),Yac cells,negligible effects on cell doubling time
N[C@H]1C(O)O[C@H](CO)[C@@H](O)[C@@H]1O (some centres unmarked) [Glucosamine],Doubling [time] of Yac cells,Yac cells,288.4
O=C[C@H](O)[C@@H](O)[C@H](O)[C@H](O)CO [Glucose],Doubling [time] of Yac cells,Yac cells,34.5
same,Effect on cell doubling time (in words),Yac cells,negligible effects on cell doubling time
NCC(=O)NCC(=O)O [Glycylglycine] (H-Gly-Gly-OH),Doubling [time] of Yac cells,Yac cells,66.9
"O=S(=O)(O)CC(O)CN1CCN(CCO)CC1 (centres unmarked) [HEPPSO, N-2-hydroxyethylpiperazine-N-2-hydroxypropane-sulfonic acid]",Doubling [time] of Yac cells,Yac cells,23.4
same,Effect on cell doubling time (in words),Yac cells,negligible effects on cell doubling time
"O=S(=O)(O)CC(O)CN1CCOCC1 (centres unmarked) [MOPSO, 3-(N-morpholino)-2-hydroxypropane-sulfonic acid]",Doubling [time] of Yac cells,Yac cells,178.4
OC[C@H]1O[C@@](CO)(O[C@H]2O[C@H](CO)[C@@H](O)[C@H](O)[C@H]2O)[C@@H](O)[C@@H]1O [Sucrose],Doubling [time] of Yac cells,Yac cells,41.0
same,Effect on cell doubling time (in words),Yac cells,negligible effects on cell doubling time
"O=S(=O)(O)CCCNC(CO)(CO)CO [TAPS, Tris(hydoxymethyl)-methylaminopropane sulfonic acid]",Doubling [time] of Yac cells,Yac cells,32.7
same,Effect on cell doubling time (in words),Yac cells,negligible effects on cell doubling time
"O=S(=O)(O)CC(O)CNC(CO)(CO)CO (centres unmarked) [TAPSO, 3-[N-tris(hydroxymethyl)methylamino]-2-hydroxypropanesulfonic acid]",Doubling [time] of Yac cells,Yac cells,63.6
Phosphate Buffered Saline,Doubling [time] of Yac cells,Yac cells,31.0
